In patent publication US20160214958A1, “COMPOUNDS AND USE FOR TREATING CANCER” (GLIONOVA AB, priority 2013, published 2016):
Like-named read-outs stand apart in the source and are kept apart here.

What was measured:
[1] = system: glioma stem cell line U3013; assay: In vitro cancer cell and CSC viability assay (ATP quantification, CellTiterGlo); type: cell-based, human; conditions: for EC50: Homo sapiens, read-out: In vitro efficacy (viability) EC50; for potency with respect to S10 (viability): individual isomers of racemic S10
Description: The ability of Examples S1-S23 to selectively induce cytotoxicity in glioma/glioblastoma cancer cells or glioma/glioblastoma cancer stem cells was determined by quantification of ATP production in glioma stem cell line U3013 in the presence of using CellTiterGlo reagent (Promega). Cells were exposed to compound in serial dilution in the range 1 nM to 50 µM for 24 hours and viability assessed with respect to negative control (dmso, no cell death) and positive control (staurosporine, full cell death). […] The EC50 of S10 remained largely similar at 2, 3 and 4 days of incubation. […] The individual isomers (S21-S23) of racemic S10 were evaluated in order to determine the enantiospecific pharmacology of the individual isomers.
Negative (100% DMSO) and positive (10 mM S10 in 100% DMSO) controls were placed in rows 1-4 and 5-8, respectively, of column 12. The wells were diluted with 190 μl of the corresponding growth media and 5 μl of each well of compound solution transferred to quadruplicate wells of a sterile 384-well black clear bottom plate (BD Falcon) containing GSC at 70% confluency in 45 μl growth media. The plate was incubated for 24 hours, after which the plate was removed from the incubator and each well imaged in bright-field using an Operetta Imaging system (PerkinElmer) at 37° C. and 5% CO2 to determine vacuole accumulation at each concentration. The plate was then allowed to cool to room temperature and each well treated with 25 μl freshly CellTiterGlo (Promega) reagent. The plate was shaken for 15 minutes and luminescence measured using a Victor3 (Perkin Elmer) microtiterplate reader. Total luminescence was normalized relative to control and curve fitting performed using GraphPad Prism (v6.02) software.

[2] = Pharmacokinetic evaluation of Vacquinol-1 stereoisomers, plasma and brain; type: in vivo, NMRI (SR/RS) or BALB/c (Vrac) mice; conditions: for AUClast Plasma / Cmax Brain / tlast Brain / tlast Plasma / AUC(0-t): mice; for AUC(0-t): brain, read-out: AUClast Brain
Description: The pharmacokinetics of Vacquinol-1 (racemic), Vacquinol-1RS and Vacquinol-1SR, were determined in NMRI (SR/RS) or BALB/c (Vrac) mice following single intravenous (i.v.) or per oral (p.o) administration of 2 or 20 mg/kg Vacquinol-1, respectively. Blood and brain samples were taken from animals at the following nominal time points: 15, 30, and 60 minutes, and 2, 4, 6, 8, 24, 48, 72 and 144 hours after dosing (n=3/time-point). Bioanalytical quantification of Vacquinol-1 was analysed in plasma and brain samples by a UPLC-MS/MS.
Pharmacokinetics were calculated by non-compartmental analysis (NCA) from composite (mean) profiles. Nominal sampling times and dose levels have been used for the NCA calculations.

Row | SMILES | EC50 ([1]; U3013, 24 hours exposure) | other results
1 | O[C@H](c1cc(-c2ccc(C(F)(F)F)nc2)nc2ccccc12)[C@H]1CCCCN1 (mixture of isomers) [Compound S29, mixture of (R)-((R)-piperidin-2-yl)(2-(6-(trifluoromethyl)pyridin-3-yl)quinolin-4-yl)methanol and (S)-((S)-piperidin-2-yl)(2-(6-(trifluoromethyl)pyridin-3-yl)quinolin-4-yl)methanol] | – | In vitro efficacy (viability) EC50 ([1]; U3013, 24 hours exposure): No activity
2 | Cc1ccc(-c2cc([C@@H](O)[C@@H]3CCCCN3)c3ccccc3n2)cc1C#N (racemic) [Compound S24, mixture of 5-(4-((R)-hydroxy((S)-piperidin-2-yl)methyl)quinolin-2-yl)-2-methylbenzonitrile and 5-(4-((S)-hydroxy((R)-piperidin-2-yl)methyl)quinolin-2-yl)-2-methylbenzonitrile] | 32.1 µM | –
3 | CCCN(CCC)C(=O)c1ccc(-c2cc([C@@H](O)[C@@H]3CCCCN3)c3ccccc3n2)cc1 (racemic) [Compound S25, mixture of 4-(4-((R)-hydroxy((S)-piperidin-2-yl)methyl)quinolin-2-yl)-N,N-dipropylbenzamide and 4-(4-((S)-hydroxy((R)-piperidin-2-yl)methyl)quinolin-2-yl)-N,N-dipropylbenzamide] | 35.4 µM | –
4 | O[C@H](c1cc(-c2ccc(C(F)(F)F)cc2)nc2ccccc12)[C@@H]1CCCCN1 (racemic) [Compound S26, mixture of (R)-((S)-piperidin-2-yl)(2-(4-(trifluoromethyl)phenyl)quinolin-4-yl)methanol and (S)-((R)-piperidin-2-yl)(2-(4-(trifluoromethyl)phenyl)quinolin-4-yl)methanol] | 13.5 µM | –
5 | O[C@H](c1cc(-c2ccc(C(F)(F)F)nc2)nc2ccccc12)[C@@H]1CCCCN1 (racemic) [Compound S27, mixture of (R)-((S)-piperidin-2-yl)(2-(6-(trifluoromethyl)pyridin-3-yl)quinolin-4-yl)methanol and (S)-((R)-piperidin-2-yl)(2-(6-(trifluoromethyl)pyridin-3-yl)quinolin-4-yl)methanol] | 38 µM | –
6 | O[C@H](c1cc(-c2ccc(C(F)(F)F)cc2)nc2ccccc12)[C@H]1CCCCN1 (racemic) [Compound S28, mixture of (R)-((R)-piperidin-2-yl)(2-(4-(trifluoromethyl)phenyl)quinolin-4-yl)methanol and (S)-((S)-piperidin-2-yl)(2-(4-(trifluoromethyl)phenyl)quinolin-4-yl)methanol] | 14.6 µM | –
7 | OC(c1cc(-c2ccccc2)nc2c1ccc1ccccc12)C1CCCCN1 (stereo not drawn) [Compound S1, (2-phenylbenzo[h]quinolin-4-yl)(piperidin-2-yl)methanol] | 0.39 µM | –
8 | OC(c1cc([C@]23CC4CC[C@H](C[C@H]4C2)C3)nc2c(Cl)cc(Cl)cc12)C1CCCCN1 (stereo partly drawn) [Compound S2, (6,8-dichloro-2-((2R,3aS,5R)-octahydro-1H-2,5-methanoinden-2-yl)quinolin-4-yl)(piperidin-2-yl)methanol] | 0.41 µM | –
9 | Cc1ccc2nc(Nc3ccc(Cl)cc3)cc(C(O)C3CCCCN3)c2c1 (stereo not drawn) [Compound S3, (2-((4-chlorophenyl)amino)-6-methylquinolin-4-yl)(piperidin-2-yl)methanol] | 0.73 µM | –
10 | OC(c1cc(-c2ccc(Cl)cc2)nc2c(Cl)cccc12)C1CCCCN1 (stereo not drawn) [Compound S4, (8-chloro-2-(4-chlorophenyl)quinolin-4-yl)(piperidin-2-yl)methanol] | 1.03 µM | –
11 | OC(c1cc(-c2ccccc2)nc2c(Cl)cc(Cl)cc12)C1CCCCN1 (stereo not drawn) [Compound S5, (6,8-dichloro-2-phenylquinolin-4-yl)(piperidin-2-yl)methanol] | 1.1 µM | –
12 | OC(c1cc(-c2cccc(Cl)c2)nc2ccccc12)C1CCCCN1 (stereo not drawn) [Compound S6, (2-(3-chlorophenyl)quinolin-4-yl)(piperidin-2-yl)methanol] | 1.25 µM | –
13 | OC(c1cc(-c2ccc(Cl)c(Cl)c2)nc2ccccc12)C1CCCCN1 (stereo not drawn) [Compound S7, (2-(3,4-dichlorophenyl)quinolin-4-yl)(piperidin-2-yl)methanol] | 1.59 µM | –
14 | C#Cc1ccc(-c2cc(C(O)C3CCCCN3)c3ccccc3n2)cc1 (stereo not drawn) [Compound S8, (2-(4-ethynylphenyl)quinolin-4-yl)(piperidin-2-yl)methanol] | 1.69 µM | –
15 | CN(Cc1ccc(-c2cc(C(O)C3CCCCN3)c3ccccc3n2)cc1)C(=O)OC(C)(C)C (stereo not drawn) [Compound S9, tert-butyl 4-(4-(hydroxy(piperidin-2-yl)methyl)quinolin-2-yl)benzyl(methyl)carbamate] | 2.25 µM | –
16 | OC(c1cc(-c2ccccc2)nc2cc(Cl)ccc12)C1CCCCN1 (stereo not drawn) [Compound S11, (7-chloro-2-phenylquinolin-4-yl)(piperidin-2-yl)methanol] | 2.69 µM | –
17 | OC(c1cc(-c2ccc(Cl)cc2Cl)nc2ccccc12)C1CCCCN1 (stereo not drawn) [Compound S12, (2-(2,4-dichlorophenyl)quinolin-4-yl)(piperidin-2-yl)methanol] | 3.22 µM | –
18 | OC(c1cc(-c2ccccc2)nc2ccc(Cl)cc12)C1CCCCN1 (stereo not drawn) [Compound S13, (6-chloro-2-phenylquinolin-4-yl)(piperidin-2-yl)methanol] | 3.62 µM | –
19 | COC(c1cc(-c2ccc(Cl)cc2)nc2ccccc12)C1CCCCN1 (stereo not drawn) [Compound S14, 2-(4-chlorophenyl)-4-(methoxy(piperidin-2-yl)methyl)quinoline] | 5.62 µM | –
20 | COc1ccc(-c2cc(C(O)C3CCCCN3)c3ccccc3n2)cc1 (stereo not drawn) [Compound S15, (2-(4-methoxyphenyl)quinolin-4-yl)(piperidin-2-yl)methanol] | 7.59 µM | –
21 | OC(c1cc(-c2ccc(Cl)cc2)nc2ccccc12)C1CCCN1 (stereo not drawn) [Compound S16, (2-(4-chlorophenyl)quinolin-4-yl)(pyrrolidin-2-yl)methanol] | 8.72 µM | –
22 | OC(c1cc(C(F)(F)F)nc2c(Cl)cc(Cl)cc12)C1CCCCN1 (stereo not drawn) [Compound S17, (6,8-dichloro-2-(trifluoromethyl)quinolin-4-yl)(piperidin-2-yl)methanol] | 9.6 µM | –
23 | OC(c1cc(C2CCCCC2)nc2ccccc12)C1CCCCN1 (stereo not drawn) [Compound S18, (2-cyclohexylquinolin-4-yl)(piperidin-2-yl)methanol] | 12.7 µM | –
24 | CN1CCCCC1C(O)c1cc(-c2ccc(Cl)cc2)nc2ccccc12 (stereo not drawn) [Compound S19, (2-(4-chlorophenyl)quinolin-4-yl)(1-methylpiperidin-2-yl)methanol] | 19.3 µM | –
25 | O[C@H](c1cc(-c2ccc(Cl)cc2)nc2ccccc12)[C@@H]1CCCCN1 [Compound S20, (R)-(2-(4-chlorophenyl)quinolin-4-yl)((S)-piperidin-2-yl)methanol] | 1.72 µM | AUClast Plasma ([2]; 2 mg/kg i.v.): 62 µg·h/mL; Cmax Brain ([2]; 2 mg/kg i.v.): 1970 ng/mL; tlast Brain ([2]; 2 mg/kg i.v.): 144 h; tlast Plasma ([2]; 2 mg/kg i.v.): 144 h; AUClast Plasma ([2]; 20 mg/kg p.o.): 246 µg·h/mL; Cmax Brain ([2]; 20 mg/kg p.o.): 4840 ng/mL; tlast Brain ([2]; 20 mg/kg p.o.): 144 h; tlast Plasma ([2]; 20 mg/kg p.o.): 144 h; Kp ([2]; NMRI (single stereoisomers SR/RS), BALB/c (racemate), mouse, brain and plasma, 20 mg/kg, after oral dosing, read-out: Cmax exposures ratio (Cmax(brain)/Cmax(plasma))): 2.2; AUC(0-t) ([2]; NMRI (single stereoisomers SR/RS), BALB/c (racemate), mouse, iv, 2 mg/kg i.v.): 52.7 µg·h/mL; AUC(0-t) ([2]; NMRI (single stereoisomers SR/RS), BALB/c (racemate), mouse, po, 20 mg/kg p.o.): 400 µg·h/mL; IC95 for cell death ([1]; glioblastoma cells (U3013)): 8.9 µM; potency with respect to S10 (viability) [1]: equal or increased potency
26 | O[C@@H](c1cc(-c2ccc(Cl)cc2)nc2ccccc12)[C@@H]1CCCCN1 [Compound S22, (S)-(2-(4-chlorophenyl)quinolin-4-yl)((S)-piperidin-2-yl)methanol] | 10.5 µM | potency with respect to S10 (viability) [1]: significantly attenuated activity
27 | O[C@H](c1cc(-c2ccc(Cl)cc2)nc2ccccc12)[C@H]1CCCCN1 [Compound S23, (R)-(2-(4-chlorophenyl)quinolin-4-yl)((R)-piperidin-2-yl)methanol] | 9.95 µM | potency with respect to S10 (viability) [1]: significantly attenuated activity
